Assay results published in ChEMBL document CHEMBL4665655, “Highly tunable thiosulfonates as a novel class of cysteine protease inhibitors with anti-parasitic activity against Schistosoma mansoni” (Bioorg Med Chem, 2019).

Experiments:
[1] = Aqueous stability of the compound in 0.1 M sodium phosphate buffer at pH 6 to 7 incubated under shaken condition by HPLC analysis; assay type: physicochemical
[2] = Inhibition of cysteine protease in Schistosoma mansoni assessed as reduction in schistosomula viability incubated for 7 days by inverted microscopy analysis
[3] = Aqueous stability of the compound in 0.1 M sodium phosphate buffer assessed as half life at pH 8 incubated under shaken condition by HPLC analysis; assay type: physicochemical
Papain = target: T1, Papain (Carica papaya, UniProt P00784); test: Inhibition of papaya papain assessed as reduction in p-nitoaniline release using Nalpha-benzoyl-L-arginine 4-nitroanilide hydrochloride as substrate measured after 1 hr
T1 sequence (P00784 whole entry): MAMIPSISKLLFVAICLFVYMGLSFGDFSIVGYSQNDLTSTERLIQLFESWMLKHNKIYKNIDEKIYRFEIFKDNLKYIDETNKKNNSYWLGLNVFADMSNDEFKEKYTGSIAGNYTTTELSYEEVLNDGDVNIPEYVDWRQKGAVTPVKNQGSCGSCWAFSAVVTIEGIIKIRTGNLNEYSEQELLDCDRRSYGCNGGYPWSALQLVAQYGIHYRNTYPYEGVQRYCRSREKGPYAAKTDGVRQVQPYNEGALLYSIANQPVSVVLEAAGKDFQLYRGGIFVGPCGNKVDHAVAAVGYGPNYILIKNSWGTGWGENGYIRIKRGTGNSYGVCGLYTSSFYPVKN

[4] = Inhibition of cysteine protease in Schistosoma mansoni assessed as reduction in schistosomula viability incubated for 3 days by inverted microscopy analysis
[5] = Aqueous stability of the compound in 0.1 M sodium phosphate buffer assessed as half life at pH 6 incubated under shaken condition by HPLC analysis; assay type: physicochemical
[6] = Aqueous stability of the compound in 0.1 M sodium phosphate buffer assessed as half life at pH 7 incubated under shaken condition by HPLC analysis; assay type: physicochemical
[7] = Aqueous stability of the compound in 0.1 M sodium phosphate buffer assessed as time taken for drug degradation at pH 7 to 8 incubated under shaken condition by HPLC analysis; assay type: physicochemical

| Compound | IC50 [2] | IC50 (Papain) | IC50 [4] | further results |
| --- | --- | --- | --- | --- |
| CN1CCN(C(=O)N[C@@H](Cc2ccccc2)C(=O)N[C@@H](CCc2ccccc2)CSS(=O)(=O)C2CCCCC2)CC1.O=C(O)C(F)(F)F | 13500 nM | 168 nM | 25400 nM | Stabilty [1]: Stable; half-life [3]: 6 h |
| CN1CCN(C(=O)N[C@@H](Cc2ccccc2)C(=O)N[C@@H](CCCNC(=N)N)CSS(=O)(=O)c2ccc([N+](=O)[O-])cc2)CC1 |  | 129 nM |  |  |
| COc1ccc(S(=O)(=O)SC[C@H](CCCNC(=N)N)NC(=O)[C@H](Cc2ccccc2)NC(=O)N2CCN(C)CC2)cc1 |  | 124 nM |  |  |
| CN1CCN(C(=O)N[C@@H](Cc2ccccc2)C(=O)N[C@@H](CCCNC(=N)N)CSS(=O)(=O)C2CCCCC2)CC1 |  | 106 nM |  |  |
| Cc1ccc(S(=O)(=O)SC[C@H](CCCNC(=N)N)NC(=O)[C@H](Cc2ccccc2)NC(=O)N2CCN(C)CC2)cc1 |  | 162 nM |  |  |
| CN1CCN(C(=O)N[C@@H](Cc2ccccc2)C(=O)N[C@@H](CCc2ccccc2)CSS(=O)(=O)c2ccccc2)CC1 | 21400 nM | 190 nM | 64400 nM |  |
| COc1ccc(S(=O)(=O)SC[C@H](CCc2ccccc2)NC(=O)[C@H](Cc2ccccc2)NC(=O)N2CCN(C)CC2)cc1.O=C(O)C(F)(F)F | 13600 nM | 148 nM | 44900 nM | half-life [5]: 1 h; half-life [6]: 24 h |
| Cc1ccc(S(=O)(=O)SC[C@H](CCc2ccccc2)NC(=O)[C@H](Cc2ccccc2)NC(=O)N2CCN(C)CC2)cc1 | 26900 nM | 182 nM | 41100 nM |  |
| CN1CCN(C(=O)N[C@@H](Cc2ccccc2)C(=O)N[C@@H](CCc2ccccc2)CSS(=O)(=O)c2ccc([N+](=O)[O-])cc2)CC1.O=C(O)C(F)(F)F | 14700 nM | 186 nM | 29300 nM | half-life [5]: 1.45 h; Time [7]: < 1 h |
| CN1CCN(C(=O)N[C@@H](Cc2ccccc2)C(=O)N[C@@H](CCCNC(=N)N)CSS(=O)(=O)c2ccccc2)CC1 |  | 168 nM |  |  |
| O[C@@H](c1cc(C(F)(F)F)nc2c(C(F)(F)F)cccc12)[C@H]1CCCCN1 [(S,R)-MEFLOQUINE] | 400 nM |  | 2400 nM |  |
| CN1CCN(C(=O)N[C@@H](Cc2ccccc2)C(=O)N[C@H](/C=C/S(=O)(=O)c2ccccc2)CCc2ccccc2)CC1 [K-777] | 7300 nM | 81 nM | 59900 nM |  |
